Measured values taken from patent US20180099931A1 (AbbVie S.à.r.l., priority 2016, published 2018).
Where two headings read alike, the source gives them in different places.

Molecular target: T1, F508delCFTR (Homo sapiens, UniProt P13569, DEL508-508)
T1 construct: expressed in transfected cells; host or cells: CFBE41o- human lung-derived epithelial cells (CFBE4lo-F508delCFTR-HRP), doxycycline-inducible
Assay: Cell Surface Expression-Horse Radish Peroxidase (CSE-HRP) Assay;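 for Maximum % activity (with co-corrector): co-corrector and positive control are both the same reference corrector at 2 µM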;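 for Maximum % activity (without co-corrector): percent of the 2 µM on-plate positive control corrector response above DMSO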
Type: cell-based
Conditions: for Maximum % activity (with co-corrector) / Emax: maximum at any tested concentration, normalized to on-plate positive control; for Emax: read-out: Maximum % activity (without co-corrector)

[1] = test compound without co-corrector, read-out: EC50 (without co-corrector)
[2] = with co-corrector (2 μM of 3-[(2R,4R)-4-({[1-(2,2-difluoro-1,3-benzodioxol-5-yl)cyclopropyl]carbonyl}amino)-7-methoxy-3,4-dihydro-2H-chromen-2-yl]benzoic acid), read-out: EC50 (with co-corrector)
[3] = test compound without co-corrector
[4] = with co-corrector (2 μM of 3-[(2R,4R)-4-({[1-(2,2-difluoro-1,3-benzodioxol-5-yl)cyclopropyl]carbonyl}amino)-7-methoxy-3,4-dihydro-2H-chromen-2-yl]benzoic acid)
[5] = CSE-HRP, test compound without co-corrector, read-out: EC50 (without co-corrector)
[6] = CSE-HRP, with co-corrector (2 μM of 3-[(2R,4R)-4-({[1-(2,2-difluoro-1,3-benzodioxol-5-yl)cyclopropyl]carbonyl}amino)-7-methoxy-3,4-dihydro-2H-chromen-2-yl]benzoic acid), read-out: EC50 (with co-corrector)
[7] = CSE-HRP, with co-corrector (2 μM)

T1 sequence (P13569 with tags, fused parts or gaps DEL508-508): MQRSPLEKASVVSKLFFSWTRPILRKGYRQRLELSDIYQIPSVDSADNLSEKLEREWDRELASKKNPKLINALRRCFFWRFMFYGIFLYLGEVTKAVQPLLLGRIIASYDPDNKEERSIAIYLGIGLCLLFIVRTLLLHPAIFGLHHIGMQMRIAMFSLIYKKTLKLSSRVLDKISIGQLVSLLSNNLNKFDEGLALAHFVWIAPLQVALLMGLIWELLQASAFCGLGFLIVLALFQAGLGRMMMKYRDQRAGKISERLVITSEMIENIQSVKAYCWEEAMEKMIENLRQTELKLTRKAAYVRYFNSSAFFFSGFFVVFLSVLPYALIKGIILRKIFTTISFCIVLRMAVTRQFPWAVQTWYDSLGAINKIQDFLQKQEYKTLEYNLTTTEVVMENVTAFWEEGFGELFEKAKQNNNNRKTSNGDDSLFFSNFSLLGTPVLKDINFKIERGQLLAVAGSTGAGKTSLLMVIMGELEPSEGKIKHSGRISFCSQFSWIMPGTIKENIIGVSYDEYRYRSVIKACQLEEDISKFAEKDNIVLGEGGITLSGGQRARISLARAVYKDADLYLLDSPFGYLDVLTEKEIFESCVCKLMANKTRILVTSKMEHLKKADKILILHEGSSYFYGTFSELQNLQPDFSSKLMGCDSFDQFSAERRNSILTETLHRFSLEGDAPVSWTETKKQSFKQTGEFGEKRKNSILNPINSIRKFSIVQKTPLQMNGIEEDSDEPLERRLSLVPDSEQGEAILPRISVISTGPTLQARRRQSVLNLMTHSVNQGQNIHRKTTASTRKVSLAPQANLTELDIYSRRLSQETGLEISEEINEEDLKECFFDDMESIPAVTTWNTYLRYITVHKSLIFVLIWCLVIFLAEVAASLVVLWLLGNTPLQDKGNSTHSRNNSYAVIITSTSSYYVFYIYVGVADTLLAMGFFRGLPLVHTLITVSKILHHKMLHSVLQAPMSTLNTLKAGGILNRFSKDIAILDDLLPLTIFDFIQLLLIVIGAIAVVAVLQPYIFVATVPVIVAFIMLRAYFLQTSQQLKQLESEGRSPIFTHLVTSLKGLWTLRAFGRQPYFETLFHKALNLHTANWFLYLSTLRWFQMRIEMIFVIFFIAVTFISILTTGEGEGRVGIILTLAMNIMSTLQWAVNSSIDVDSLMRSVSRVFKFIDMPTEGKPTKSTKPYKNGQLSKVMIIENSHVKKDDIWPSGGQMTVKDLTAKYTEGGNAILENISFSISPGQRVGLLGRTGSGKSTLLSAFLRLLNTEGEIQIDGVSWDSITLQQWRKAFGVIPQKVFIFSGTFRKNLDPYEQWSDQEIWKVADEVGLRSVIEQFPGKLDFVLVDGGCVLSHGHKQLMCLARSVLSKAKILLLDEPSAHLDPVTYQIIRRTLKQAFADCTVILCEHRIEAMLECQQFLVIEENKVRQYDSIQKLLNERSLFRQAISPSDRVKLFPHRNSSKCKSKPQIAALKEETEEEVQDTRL

Structure (SMILES) | EC50 [1] [nM] | EC50 [2] [nM] | Maximum % activity (with co-corrector) (with co-corrector (2 μM)) | Emax (without co-corrector) [%] | Emax [3] [%] | Maximum % activity (with co-corrector) [4] | EC50 [5] [nM] | EC50 [6] [nM] | Maximum % activity (with co-corrector) [7] | Emax (CSE-HRP, without co-corrector) [%]
COc1cc(C(F)(F)F)ccc1CN[C@H]1[C@H](C(C)(C)C)[C@@H](C(=O)O)N(C(=O)[C@@H]2CCCCO2)[C@H]1c1cccnc1N(C)C [II-495] | 1000 to 10000 | 1000 to 10000 | – | – | > 200 | +++ (≥350) | – | – | – | –
COc1cc(C(C)(C)C)ccc1CN[C@H]1[C@H](C(C)(C)C)[C@@H](C(=O)O)N(C(=O)C2CCCCC2)[C@H]1c1ccccc1 [II-103] | – | – | – | – | – | – | 1000 to 10000 | 1000 to 10000 | +++ (≥350) | 100 to 200
COc1ncc(Br)cc1CN[C@H]1[C@H](C(C)(C)C)[C@@H](C(=O)O)N(C(=O)[C@@H]2CCCO2)[C@H]1c1ccccc1C(C)C [II-594] | 1000 to 10000 | < 1000 | – | – | > 200 | +++ (≥350) | – | – | – | –
COc1cc(C(F)(F)F)ccc1CN[C@@H]1[C@@H](C(C)(C)C)[C@H](C(=O)O)N(C(=O)[C@@H](OC)c2ccccc2)[C@@H]1c1ccccc1 [III-101] | > 10000 | 1000 to 10000 | ++ (≥150 and <350) | – | < 100 | – | – | – | – | –
CC(C)(O)c1cc(Cl)nc(N[C@H]2[C@H](C(C)(C)C)[C@@H](C(=O)O)N(C(=O)C3CCCCC3)[C@H]2c2ccccc2)c1 [III-147] | > 10000 | 1000 to 10000 | ++ (≥150 and <350) | – | < 100 | – | – | – | – | –
COc1ccc(C(C)(C)C)cc1CN[C@H]1[C@H](C(C)(C)C)[C@@H](C(=O)O)N(C(=O)C2CCCC(C(F)(F)F)C2)[C@H]1c1ccccc1 (some centres unmarked) [II-186] | – | – | – | – | – | – | < 1000 | < 1000 | +++ (≥350) | > 200
COc1ccc(C23CC(C2)C3)cc1CN[C@H]1[C@H](C(C)(C)C)[C@@H](C(=O)O)N(C(=O)OC(C)C)[C@H]1c1ccccc1 [Example I-210] | 1000 to 10000 | < 1000 | +++ (≥350) | > 200 | – | – | – | – | – | –
CO[C@H](C(=O)N1[C@H](C(=O)O)[C@@H](C(C)(C)C)[C@H](Nc2cc(C(F)(F)F)cc(C)n2)[C@@H]1c1ccccc1)c1ccccc1 [III-103] | > 10000 | 1000 to 10000 | + (<150) | – | < 100 | – | – | – | – | –
COc1ccc(C(C)(C)C)cc1CN[C@H]1[C@H](C(C)(C)C)[C@@H](C(=O)O)N(C(=O)C(C)Oc2cccc(F)c2)[C@H]1c1ccccc1 (some centres unmarked) [II-305] | – | – | – | – | – | – | < 1000 | < 1000 | +++ (≥350) | 100 to 200
COc1ccc(C(C)(C)C)cc1CN[C@H]1[C@H](C(C)(C)C)[C@@H](C(=O)O)N(C(=O)[C@@H]2CCCCO2)[C@H]1c1ccccc1F [II-460] | 1000 to 10000 | < 1000 | – | – | > 200 | +++ (≥350) | – | – | – | –
COc1ccc(C(C)(C)C)cc1CN[C@H]1[C@H](C(C)(C)C)[C@@H](C(=O)O)N(C(=O)C2CCC(C#N)CC2)[C@H]1c1ccccc1 (some centres unmarked) [II-175] | – | – | – | – | – | – | 1000 to 10000 | 1000 to 10000 | +++ (≥350) | 100 to 200
COc1ccc(C(C)(C)C)cc1CN[C@H]1[C@H](C(C)(C)C)[C@@H](C(=O)O)N(C(=O)[C@H]2CCCCO2)[C@H]1c1ccccc1OC(F)F [Example 45, (2S,3S,4S,5S)-3-tert-butyl-4-{[(5-tert-butyl-2-methoxyphenyl)methyl]amino}-5-[2-(difluoromethoxy)phenyl]-1-[(2R)-oxane-2-carbonyl]pyrrolidine-2-carboxylic acid] | 1000 to 10000 | 1000 to 10000 | +++ (≥350) | 100 to 200 | – | – | – | – | – | –
COc1ccc(C(C)(C)C)cc1CN[C@H]1[C@H](C(C)(C)C)[C@@](C)(C(=O)O)N(C(=O)C2CCCCC2)[C@H]1c1ccccc1 (racemic) [Example I-211] | > 10000 | 1000 to 10000 | + (<150) | < 100 | – | – | – | – | – | –
COc1ccc(C(C)(C)C)cc1CN[C@H]1[C@H](C(C)(C)C)[C@@H](C(=O)O)N(C(=O)C2CCCCC2)[C@H]1c1ccccc1F [Example 24, (2S,3S,4S,5S)-3-tert-butyl-4-{[(5-tert-butyl-2-methoxyphenyl)methyl]amino}-1-(cyclohexanecarbonyl)-5-(2-fluorophenyl)pyrrolidine-2-carboxylic acid] | < 1000 | < 1000 | +++ (≥350) | > 200 | – | – | – | – | – | –

Second part, the molecule after the results:

EC50 [1] [nM] | EC50 [2] [nM] | Maximum % activity (with co-corrector) (with co-corrector (2 μM)) | Emax (without co-corrector) [%] | Emax [3] [%] | Maximum % activity (with co-corrector) [4] | EC50 [5] [nM] | EC50 [6] [nM] | Maximum % activity (with co-corrector) [7] | Emax (CSE-HRP, without co-corrector) [%] | Structure (SMILES)
1000 to 10000 | 1000 to 10000 | ++ (≥150 and <350) | < 100 | – | – | – | – | – | – | CC(C)(C)[C@H]1[C@H](NCc2cc3ccccc3o2)[C@H](c2ccccc2)N(C(=O)C2CCCCC2)[C@@H]1C(=O)O [Example I-46]
1000 to 10000 | 1000 to 10000 | – | – | > 200 | +++ (≥350) | – | – | – | – | COc1ncc(C(F)(F)F)cc1CN[C@H]1[C@H](C(C)(C)C)[C@@H](C(=O)O)N(C(=O)OC(C)C)[C@H]1c1ccccc1C [II-580]
< 1000 | < 1000 | +++ (≥350) | 100 to 200 | – | – | – | – | – | – | COc1ccc(C(C)(C)C)cc1CN[C@H]1[C@H](C(C)(C)C)[C@@H](C(=O)O)N(C(=O)C2Cc3ccccc3O2)[C@H]1c1cccnc1OC (single isomer, unassigned) [Example I-165]
1000 to 10000 | 1000 to 10000 | – | – | 100 to 200 | +++ (≥350) | – | – | – | – | COc1ncc(C(F)(F)F)cc1CN[C@H]1[C@H](C(C)(C)C)[C@@H](C(=O)O)N(C(=O)OC(C)C)[C@H]1c1cccnc1OC [II-512]
– | – | – | – | – | – | 1000 to 10000 | 1000 to 10000 | +++ (≥350) | 100 to 200 | COc1cc(C(F)(F)F)ccc1CN[C@@H]1[C@@H](C(C)(C)C)[C@H](C(=O)O)N(C(=O)[C@@H]2CCCCO2)[C@@H]1c1ccccc1 [II-82]
1000 to 10000 | 1000 to 10000 | – | – | 100 to 200 | +++ (≥350) | – | – | – | – | COc1cnc(-c2ccccc2F)cc1CN[C@H]1[C@H](C(C)(C)C)[C@@H](C(=O)O)N(C(=O)C2CCCCC2)[C@H]1c1ccccc1 [II-417]
> 10000 | 1000 to 10000 | – | – | < 100 | ++ (≥150 and <350) | – | – | – | – | COc1cccc(CN[C@@H]2[C@@H](C(C)(C)C)[C@H](C(=O)O)N(C(=O)C3CCCCC3)[C@@H]2c2ccccc2)c1 (racemic) [III-14]
1000 to 10000 | < 1000 | +++ (≥350) | 100 to 200 | – | – | – | – | – | – | COc1nc(C(C)(C)C)ccc1CN[C@H]1[C@H](C(C)(C)C)[C@@H](C(=O)O)N(C(=O)OC(C)C)[C@H]1c1cccnc1OC [Example I-234]
– | – | – | – | – | – | 1000 to 10000 | 1000 to 10000 | +++ (≥350) | > 200 | COc1ccc(C(C)(C)C)cc1CN[C@H]1[C@H](C(C)(C)OC)[C@@H](C(=O)O)N(C(=O)C2CCCCC2)[C@H]1c1ccccc1OC [II-294]
> 10000 | 1000 to 10000 | ++ (≥150 and <350) | – | < 100 | – | – | – | – | – | CC(C)(C)[C@@H]1[C@@H](NCc2cc(Br)ccc2C#N)[C@@H](c2ccccc2)N(C(=O)C2CCCCC2)[C@H]1C(=O)O (racemic) [III-109]
< 1000 | < 1000 | – | – | > 200 | +++ (≥350) | – | – | – | – | COc1ccc(C(C)(C)C)cc1CN[C@H]1[C@H](C(C)(C)C)[C@@H](C(=O)O)N(C(=O)O[C@H]2C[C@@H](C)CC[C@@H]2C(C)C)[C@H]1c1ccccc1 [II-386]
– | – | – | – | – | – | 1000 to 10000 | 1000 to 10000 | +++ (≥350) | < 100 | COc1ccc(C(C)(C)C)cc1CN[C@H]1[C@H](C(C)(C)C)[C@@H](C(=O)O)N(C(=O)C(OC)C(C)(C)C)[C@H]1c1ccccc1 (relative stereo) [II-297]
1000 to 10000 | 1000 to 10000 | ++ (≥150 and <350) | – | < 100 | – | – | – | – | – | CC(C)(C)[C@H]1[C@H](Nc2nc(Cl)c(F)cc2C#N)[C@H](c2ccccc2)N(C(=O)C2CCCCC2)[C@@H]1C(=O)O [III-145]
1000 to 10000 | 1000 to 10000 | – | – | < 100 | ++ (≥150 and <350) | – | – | – | – | COc1ccc(CN[C@@H]2[C@@H](C(C)(C)C)[C@H](C(=O)O)N(C(=O)OC(C)C)[C@@H]2c2ccccc2)c(OC)c1 (racemic) [III-91]
< 1000 | < 1000 | +++ (≥350) | > 200 | – | – | – | – | – | – | COc1ccc(C(C)(C)C)cc1CN[C@H]1[C@H](C(C)(C)C)[C@@H](C(=O)O)N(C(=O)C2CCCC(F)(F)C2)[C@H]1c1cccnc1N(C)C (single isomer, unassigned) [Example 42, (2S,3S,4S,5S)-3-tert-butyl-4-{[(5-tert-butyl-2-methoxyphenyl)methyl]amino}-1-[(1R*)-3,3-difluorocyclohexane-1-carbonyl]-5-[2-(dimethylamino)pyridin-3-yl]pyrrolidine-2-carboxylic acid]
